Laboratory results reported in patent US12459922B2 (Gilead Sciences, Inc., priority 2022, dated 2025).
pEC50, pIC50: −log10 of the molar value.

Assays:
PARP7 = molecular target: T1, PARP7 (Homo sapiens, UniProt Q7Z3E1); experiment: Probe Displacement Assay for PARP7 (MSD electrochemiluminescent, biotinylated probe RBNO11147); conditions: displacement of biotinylated probe RBNO11147 from PARP7 NAD+-binding site; read-out: MSD ProbeDisp PARP7 IC50
T1 sequence (Q7Z3E1 1-657): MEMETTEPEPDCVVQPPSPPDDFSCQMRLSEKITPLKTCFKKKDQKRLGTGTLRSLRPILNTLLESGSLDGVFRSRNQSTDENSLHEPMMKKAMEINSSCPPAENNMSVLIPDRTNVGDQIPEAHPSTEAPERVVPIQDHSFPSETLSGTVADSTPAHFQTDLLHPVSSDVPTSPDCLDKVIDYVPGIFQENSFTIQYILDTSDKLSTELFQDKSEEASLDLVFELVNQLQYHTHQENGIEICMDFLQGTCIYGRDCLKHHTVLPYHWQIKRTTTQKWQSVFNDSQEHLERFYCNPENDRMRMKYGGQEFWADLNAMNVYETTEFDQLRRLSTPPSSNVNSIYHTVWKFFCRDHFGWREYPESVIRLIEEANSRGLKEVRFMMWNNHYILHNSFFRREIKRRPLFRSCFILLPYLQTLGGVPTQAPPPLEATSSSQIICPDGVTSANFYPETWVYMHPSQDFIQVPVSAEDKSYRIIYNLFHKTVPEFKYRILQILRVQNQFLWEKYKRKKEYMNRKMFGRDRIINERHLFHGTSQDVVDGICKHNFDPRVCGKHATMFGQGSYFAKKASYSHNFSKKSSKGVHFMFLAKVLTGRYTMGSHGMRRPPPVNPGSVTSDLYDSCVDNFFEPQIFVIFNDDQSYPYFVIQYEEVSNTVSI
Experimental: Displacement of a biotinylated probe (RBNO11147; Wigle et al., Cell Chemical Biology, 2020, pp. 877-887) from the PARP7 NAD+-binding site was measured in vitro using a Mesoscale Discovery electrochemiluminescent assay. […] Next, 10 ml of 10 nM PARP7 protein incubated for 1 hour at room temperature with a dose response curve of each test compound in a Greiner LDV polypropylene plate (#781201) is added to the MSD plate containing the immobilized probe. The interaction is allowed to reach equilibrium for 1.5 hours, and then 10 ml of SULFO-TAG labeled anti-GST antibody (Cat #R32AA-1) is added to each well and allowed to incubate for an additional 1.5 hours at room temperature. Finally, 10 ml of MSD read buffer T (4×, Cat. #R92C-1) is added to each well using a Bravo liquid handler to prevent air bubbles in the wells, and the plates are subsequently read in an MSD instrument. Light intensity is then measured to quantify the amount of PARP7 bound to the immobilized probe on the plate.

[1] = system: endogenous cellular STAT1 (phosphorylated at Tyr701) in NCI-H1373 cells; experiment: Phospho-STAT1 (Tyr701) LANCE Ultra TR-FRET Detection Assay; assay type: cell-based; conditions: Homo sapiens, NCI-H1373, 48 h, phospho-STAT1 (Tyr701) induction, read-out: NH1373 pSTAT1 EC50

| pIC50 (PARP7) | pEC50 [1] | Compound |
| --- | --- | --- |
| 9.70 | 7.02 | C[C@@H](CCCn1ncc2cc(-c3ncc(C(F)(F)F)cn3)ccc2c1=O)Nc1cn[nH]c(=O)c1C(F)(F)F [Example 4, 2-[(4S)-4-[[6-oxo-5-(trifluoromethyl)-1H-pyridazin-4-yl]amino]pentyl]-6 [5-(trifluoromethyl)pyrimidin-2-yl]phthalazin-1-one] |
| 9.52 | 6.85 | C[C@@H](CCCn1ccc2cc(-c3ncc(C(F)(F)F)cn3)ccc2c1=O)Nc1cn[nH]c(=O)c1C(F)(F)F [Example 5, 2-[(4S)-4-[[6-oxo-5-(trifluoromethyl)-1H-pyridazin-4-yl]amino]pentyl]-6-[5-(trifluoromethyl)pyrimidin-2-yl]isoquinolin-1-one] |
| 9.15 | 6.36 | C[C@@H](CCCn1ccc2c(F)c(-c3ncc(C(F)(F)F)cn3)ccc2c1=O)Nc1cn[nH]c(=O)c1C(F)(F)F [Example 6, 5-fluoro-2-[(4S)-4-[[6-oxo-5-(trifluoromethyl)-1H-pyridazin-4-yl]amino]pentyl]-6-[5-(trifluoromethyl)pyrimidin-2-yl]isoquinolin-1-one] |
| 9.52 | 7.21 | C[C@@H](CCCn1ccc2cc(-c3ncc(C(F)(F)F)cn3)cc(F)c2c1=O)Nc1cn[nH]c(=O)c1C(F)(F)F [Example 7, 8-fluoro-2-[(4S)-4-[[6-oxo-5-(trifluoromethyl)-1H-pyridazin-4-yl]amino]pentyl]-6-[5-(trifluoromethyl)pyrimidin-2-yl]isoquinolin-1-one] |
| 9.70 | 7.72 | C[C@@H](CCCn1ccc2cc(-c3ncc(C(F)(F)F)cn3)c(F)cc2c1=O)Nc1cn[nH]c(=O)c1C(F)(F)F [Example 8, 7-fluoro-2-[(4S)-4-[[6-oxo-5-(trifluoromethyl)-1H-pyridazin-4-yl]amino]pentyl]-6-[5-(trifluoromethyl)pyrimidin-2-yl]isoquinolin-1-one] |
| 9.40 | 7.04 | C[C@@H](CCCn1ccc2cc(-c3ccc(C(F)(F)F)cn3)c(F)cc2c1=O)Nc1cn[nH]c(=O)c1C(F)(F)F [Example 9, 7-fluoro-2-[(4S)-4-[[6-oxo-5-(trifluoromethyl)-1H-pyridazin-4-yl]amino]pentyl]-6-[5-(trifluoromethyl)-2-pyridyl]isoquinolin-1-one] |
| 9.15 | 6.54 | C[C@@H](CCCn1ccc2c(F)c(-c3ccc(C(F)(F)F)cn3)ccc2c1=O)Nc1cn[nH]c(=O)c1C(F)(F)F [Example 10, 5-fluoro-2-[(4S)-4-[[6-oxo-5-(trifluoromethyl)-1H-pyridazin-4-yl]amino]pentyl]-6-[5-(trifluoromethyl)-2-pyridyl]isoquinolin-1-one] |
| 9.70 | 7.49 | C[C@@H](CCCn1ccc2cc(-c3ccc(C(F)(F)F)cn3)cc(F)c2c1=O)Nc1cn[nH]c(=O)c1C(F)(F)F [Example 11, 8-fluoro-2-[(4S)-4-[[6-oxo-5-(trifluoromethyl)-1H-pyridazin-4-yl]amino]pentyl]-6-[5-(trifluoromethyl)-2-pyridyl]isoquinolin-1-one] |
| 7.64 | 5.00 | C[C@@H](CCCn1ccc2cc(-c3ncc(C(F)(F)F)cn3)cnc2c1=O)Nc1cn[nH]c(=O)c1C(F)(F)F [Example 12, 7-[(4S)-4-[[6-oxo-5-(trifluoromethyl)-1H-pyridazin-4-yl]amino]pentyl]-3-[5-(trifluoromethyl)pyrimidin-2-yl]-1,7-naphthyridin-8-one] |
| 8.43 | 5.00 | C[C@@H](CCCn1ccc2cc(-c3ccc(C(F)(F)F)cn3)ncc2c1=O)Nc1cn[nH]c(=O)c1C(F)(F)F [Example 13, 2-[(4S)-4-[[6-oxo-5-(trifluoromethyl)-1H-pyridazin-4-yl]amino]pentyl]-6-[5 (trifluoromethyl)-2-pyridyl]-2,7-naphthyridin-1-one] |
| 9.30 | 7.03 | C[C@@H](CCCn1ccc2nc(-c3ccc(C(F)(F)F)cn3)ccc2c1=O)Nc1cn[nH]c(=O)c1C(F)(F)F [Example 14] |
| 9.52 | 6.24 | CC(=O)c1c(N[C@@H](C)CCCn2ccc3cc(-c4ncc(C(F)(F)F)cn4)ccc3c2=O)cn[nH]c1=O [Example 15, 2-[(4S)-4-[(5-acetyl-6-oxo-1H-pyridazin-4-yl)amino]pentyl]-6-[5-(trifluoromethyl)pyrimidin-2-yl]isoquinolin-1-one] |
| 9.70 | 7.60 | CC(=O)c1c(N[C@@H](C)CCCn2ccc3cc(-c4ncc(C(F)(F)F)cn4)c(F)cc3c2=O)cn[nH]c1=O [Example 16, (S)-2-(4-((5-acetyl-6-oxo-1,6-dihydropyridazin-4-yl)amino)pentyl)-7-fluoro-6-(5-(trifluoromethyl)pyrimidin-2-yl)isoquinolin-1(2H)-one] |
| 9.40 | 6.93 | C[C@@H](CCCn1ccc2cc(-c3ccc(OC(F)F)cn3)cc(F)c2c1=O)Nc1cn[nH]c(=O)c1C(F)(F)F [Example 17, (S)-6-(5-(difluoromethoxy)pyridin-2-yl)-8-fluoro-2-(4-((6-oxo-5-(trifluoromethyl)-1,6-dihydropyridazin-4-yl)amino)pentyl)isoquinolin-1(2H)-one] |
| 9.40 | 6.79 | C[C@@H](CCCn1ccc2cc(-c3ccc(C#N)cn3)cc(F)c2c1=O)Nc1cn[nH]c(=O)c1C(F)(F)F [Example 18, (S)-6-(8-fluoro-1-oxo-2-(4-((6-oxo-5-(trifluoromethyl)-1,6-dihydropyridazin-4-yl)amino)pentyl)-1,2-dihydroisoquinolin-6-yl)nicotinonitrile] |
| 9.52 | 7.13 | C[C@@H](CCCn1ccc2cc(-c3ccc(F)cn3)cc(F)c2c1=O)Nc1cn[nH]c(=O)c1C(F)(F)F [Example 19, (S)-8-fluoro-6-(5-fluoropyridin-2-yl)-2-(4-((6-oxo-5-(trifluoromethyl)-1,6-dihydropyridazin-4-yl)amino)pentyl)isoquinolin-1(2H)-one] |
| 9.52 | 7.83 | C[C@@H](CCCn1ccc2cc(-c3ncc(C(F)(F)F)cn3)c(F)c(F)c2c1=O)Nc1cn[nH]c(=O)c1C(F)(F)F [Example 20] |
| 9.52 | 6.87 | C[C@@H](CCCn1ccc2cc(-c3cnc(C(F)(F)F)cn3)c(F)cc2c1=O)Nc1cn[nH]c(=O)c1C(F)(F)F [Example 21, 7-fluoro-2-[(4S)-4-[[6-oxo-5-(trifluoromethyl)-1H-pyridazin-4-yl]amino]pentyl]-6-[5-(trifluoromethyl)pyrazin-2-yl]isoquinolin-1-one] |
| 9.40 | 7.15 | COc1cnc(-c2cc3ccn(CCC[C@H](C)Nc4cn[nH]c(=O)c4C(F)(F)F)c(=O)c3cc2F)nc1 [Example 22, (S)-7-fluoro-6-(5-methoxypyrimidin-2-yl)-2-(4-((6-oxo-5-(trifluoromethyl)-1,6-dihydropyridazin-4-yl)amino)pentyl)isoquinolin-1(2H)-one] |
| 9.40 | 5.64 | C[C@@H](CCCn1ccc2cc(-c3cnc(C#N)cn3)c(F)cc2c1=O)Nc1cn[nH]c(=O)c1C(F)(F)F [Example 23, (S)-5-(7-fluoro-1-oxo-2-(4-((6-oxo-5-(trifluoromethyl)-1,6-dihydropyridazin-4-yl)amino)pentyl)-1,2-dihydroisoquinolin-6-yl)pyrazine-2-carbonitrile] |
| 9.05 | 6.66 | C[C@@H](CCCn1ccc2cc(-c3ncc(C#N)cn3)c(F)cc2c1=O)Nc1cn[nH]c(=O)c1C(F)(F)F [Example 24, (S)-2-(7-fluoro-1-oxo-2-(4-((6-oxo-5-(trifluoromethyl)-1,6-dihydropyridazin-4-yl)amino)pentyl)-1,2-dihydroisoquinolin-6-yl)pyrimidine-5-carbonitrile] |
| 9.22 | 6.87 | C[C@@H](CCCn1ccc2cc(-c3ccc(C#N)cn3)c(F)cc2c1=O)Nc1cn[nH]c(=O)c1C(F)(F)F [Example 25, (S)-6-(7-fluoro-1-oxo-2-(4-((6-oxo-5-(trifluoromethyl)-1,6-dihydropyridazin-4-yl)amino)pentyl)-1,2-dihydroisoquinolin-6-yl)nicotinonitrile] |
| 9.40 | 5.00 | C[C@@H](CCCn1ccc2cc(-c3cccc4c3OCC4)c(F)cc2c1=O)Nc1cn[nH]c(=O)c1C(F)(F)F [Example 26, (S)-6-(2,3-dihydrobenzofuran-7-yl)-7-fluoro-2-(4-((6-oxo-5-(trifluoromethyl)-1,6-dihydropyridazin-4-yl)amino)pentyl)isoquinolin-1(2H)-one] |
| 7.60 | 5.00 | C[C@@H](CCCn1ccc2cc(-c3cccc4c3OCCO4)c(F)cc2c1=O)Nc1cn[nH]c(=O)c1C(F)(F)F [Example 27, (S)-6-(2,3-dihydrobenzo[b][1,4]dioxin-5-yl)-7-fluoro-2-(4-((6-oxo-5-(trifluoromethyl)-1,6-dihydropyridazin-4-yl)amino)pentyl)isoquinolin-1(2H)-one] |
